Results taken from US20020137929A1, “1 - (3-heterocyclylphenyl) isothiourea, -isourea, -guanidine and -amidine herbicidal agents” (Intellectual Property Department, BASF Aktiengesellschaft, priority 1998, published 2002).

Experiments:
[1] = system: ECHORC (Watergrass (Calif.)); assay: Postemergence weed control under flooded paddy conditions; format: in vivo, Echinochloa oryzoides; conditions: postemergence weeds, rated 3 to 4 weeks after treatment
Procedure, shortened: (§1)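 Injury ratings (0–9 scale covering stand, vigor, malformation, size, chlorosis and overall appearance versus control) were made three to four weeks after treatment. Test material, about 0.0313 to 0.500 kg/ha a.i. in 50/50 v/v aqueous/acetone, was added to flood water 1.5 to 3 cm deep over 3 to 5 cm weeds and 1.5 to 2.5 leaf rice.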

ABUTH (Velvetleaf) = assay: Postemergence herbicidal evaluation; format: in vivo, Abutilon theophrasti; conditions: postemergence
Procedure, shortened: (§2)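 Herbicidal effect was judged by eye on a 0–9 scale covering stand, vigor, deformity, size and chlorosis, compared with controls, four to five weeks after seedlings about two weeks old were sprayed (40 psi, ~0.0156–0.500 kg/ha).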

SETVI (Foxtail, Green) [2] = assay: Postemergence herbicidal evaluation; format: in vivo, Setaria viridis; conditions: postemergence
Procedure, shortened: as §2

CYPSE (Flatsedge) = assay: Postemergence weed control under flooded paddy conditions; format: in vivo, Cyperus serotinus; conditions: postemergence weeds, rated 3 to 4 weeks after treatment
Procedure, shortened: as §1

[3] = system: TRZAWR (Wheat, Winter, cv Riband); assay: Postemergence herbicidal evaluation; format: in vivo, Triticum aestivum; conditions: postemergence
Procedure, shortened: as §2

[4] = system: GLXMAW (Soybean, Williams); assay: Postemergence herbicidal evaluation; format: in vivo, Glycine max, (L.) Merr. cv Williams; conditions: postemergence
Procedure, shortened: as §2

[5] = system: SAGPY (Arrowhead (Pygmaea)); assay: Postemergence weed control under flooded paddy conditions; format: in vivo, Sagittaria pygmaea; conditions: postemergence weeds, rated 3 to 4 weeks after treatment
Procedure, shortened: as §1

GALAP (Galium) = assay: Preemergence herbicidal evaluation; format: in vivo, Galium aparine; conditions: preemergence, rated 4-5 weeks after treatment, 0-9 scale
Procedure, shortened: (§3)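 Sown cups got a single aqueous acetone spray of test compound (roughly 0.0156–0.500 kg/ha) before seedlings emerged. Evaluation, 4–5 weeks on, used a 0–9 visual scale covering plant stand, vigor, size, malformation, chlorosis and general appearance compared with controls.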

ZEAMX (Corn, Field) = assay: Postemergence herbicidal evaluation; format: in vivo, Zea mays; conditions: postemergence
Procedure, shortened: as §2

SETVI (Foxtail, Green) [6] = assay: Preemergence herbicidal evaluation; format: in vivo, Setaria viridis; conditions: preemergence, rated 4-5 weeks after treatment, 0-9 scale
Procedure, shortened: as §3

[7] = system: CHEAL (Lambsquarters, Common); assay: Postemergence herbicidal evaluation; format: in vivo, Chenopodium album; conditions: postemergence
Procedure, shortened: as §2

ORYSAT (Rice, Tebonnet) = assay: Postemergence herbicidal evaluation; format: in vivo, Oryza sativa, (L.) Tebonnet; conditions: postemergence
Procedure, shortened: as §2

AMBEL (Ragweed, Common) = assay: Preemergence herbicidal evaluation; format: in vivo, Ambrosia artemisifolia; conditions: preemergence, rated 4-5 weeks after treatment, 0-9 scale
Procedure, shortened: as §3

CYPIR (Rice Flatsedge) = assay: Preemergence weed control under flooded paddy conditions; format: in vivo, Cyperus iria; conditions: rated 3-4 weeks after treatment
Procedure, shortened: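 Visual injury scored 0-9 against control three to four weeks post-treatment, greenhouse-grown. Application: acetone/water (50/50) solutions dosed directly into flood water (1.5-3 cm over silt loam, planted top 0.5 cm), roughly 0.0313 to 0.500 kg/ha active ingredient.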

Question: For `CN1C(=O)C(CC(=O)OCCF)SC1=Nc1cc(-n2c(=O)cc(C(F)(F)F)n(C)c2=O)c(F)cc1Cl` (stereo not shown) [Compound 93, 2-Fluoroethyl 2-{{2-chloro-5-[3,6-dihydro-3-methyl-2,6-dioxo-4-(trifluoromethyl)-1(2H)-pyrimidinyl]-4-fluorophenyl}imino}-3-methyl-4-oxo-5-thiazolidineacetate], which “Herbicidal rating ECHORC” value ([1]; Rate 0.0313 kg/ha) is on record?
Answer: Its value is 0.0.

Question: What about the “Herbicidal rating ECHORC” value ([1]; Rate 0.0625 kg/ha) of the same compound?
Answer: The value was 3.0.

Question: What about the “Herbicidal rating ECHORC” value ([1]; Rate 0.1250 kg/ha) of the same compound?
Answer: The value was 4.0.

Question: And the “Herbicidal rating ECHORC” value ([1]; Rate 0.2500 kg/ha)?
Answer: The value was 7.0.

Question: And the ABUTH herbicidal rating (ABUTH (Velvetleaf); rate 0.0158 kg/ha)?
Answer: The ABUTH herbicidal rating was 9.0.

Question: What about the ABUTH herbicidal rating (ABUTH (Velvetleaf); rate 0.0315 kg/ha) of the same compound?
Answer: Its ABUTH herbicidal rating is 9.0.

Question: What about the ABUTH herbicidal rating (ABUTH (Velvetleaf); rate 0.0630 kg/ha) of the same compound?
Answer: Its ABUTH herbicidal rating is 9.0.

Question: And the SETVI herbicidal rating (SETVI (Foxtail, Green) [2]; rate 0.0158 kg/ha)?
Answer: Its SETVI herbicidal rating is 9.0.

Question: What about the SETVI herbicidal rating (SETVI (Foxtail, Green) [2]; rate 0.0315 kg/ha) of the same compound?
Answer: The SETVI herbicidal rating was 9.0.

Question: What about the SETVI herbicidal rating (SETVI (Foxtail, Green) [2]; rate 0.0630 kg/ha) of the same compound?
Answer: Its SETVI herbicidal rating is 9.0.

Question: What about the “Herbicidal rating CYPSE” value (CYPSE (Flatsedge); Rate 0.0313 kg/ha) of the same compound?
Answer: Its value is 0.0.

Question: What about the “Herbicidal rating CYPSE” value (CYPSE (Flatsedge); Rate 0.0625 kg/ha) of the same compound?
Answer: Its value is 0.0.

Question: What about the “Herbicidal rating CYPSE” value (CYPSE (Flatsedge); Rate 0.1250 kg/ha) of the same compound?
Answer: The value was 5.0.

Question: What about the “Herbicidal rating CYPSE” value (CYPSE (Flatsedge); Rate 0.2500 kg/ha) of the same compound?
Answer: Its value is 9.0.

Question: What about the TRZAWR herbicidal rating ([3]; rate 0.0158 kg/ha) of the same compound?
Answer: Its TRZAWR herbicidal rating is 5.0.

Question: What about the TRZAWR herbicidal rating ([3]; rate 0.0315 kg/ha) of the same compound?
Answer: Its TRZAWR herbicidal rating is 6.0.

Question: And the TRZAWR herbicidal rating ([3]; rate 0.0630 kg/ha)?
Answer: Its TRZAWR herbicidal rating is 7.5.

Question: What about the GLXMAW herbicidal rating ([4]; rate 0.0158 kg/ha) of the same compound?
Answer: Its GLXMAW herbicidal rating is 8.5.

Question: What about the GLXMAW herbicidal rating ([4]; rate 0.0315 kg/ha) of the same compound?
Answer: The GLXMAW herbicidal rating was 9.0.

Question: What about the GLXMAW herbicidal rating ([4]; rate 0.0630 kg/ha) of the same compound?
Answer: The GLXMAW herbicidal rating was 9.0.

Question: What about the “Herbicidal rating SAGPY” value ([5]; Rate 0.0313 kg/ha) of the same compound?
Answer: Its value is 0.0.

Question: What about the “Herbicidal rating SAGPY” value ([5]; Rate 0.0625 kg/ha) of the same compound?
Answer: Its value is 0.0.

Question: And the “Herbicidal rating SAGPY” value ([5]; Rate 0.1250 kg/ha)?
Answer: Its value is 3.0.

Question: What about the “Herbicidal rating SAGPY” value ([5]; Rate 0.2500 kg/ha) of the same compound?
Answer: Its value is 9.0.

Question: And the GALAP rating (GALAP (Galium); 0.0313 kg/ha)?
Answer: Its GALAP rating is 0.0.

Question: And the GALAP rating (GALAP (Galium); 0.0625 kg/ha)?
Answer: Its GALAP rating is 0.0.

Question: And the GALAP rating (GALAP (Galium); 0.1250 kg/ha)?
Answer: Its GALAP rating is 9.0.

Question: And the GALAP rating (GALAP (Galium); 0.2500 kg/ha)?
Answer: Its GALAP rating is 9.0.

Question: What about the ZEAMX herbicidal rating (ZEAMX (Corn, Field); rate 0.0158 kg/ha) of the same compound?
Answer: Its ZEAMX herbicidal rating is 7.5.

Question: What about the ZEAMX herbicidal rating (ZEAMX (Corn, Field); rate 0.0315 kg/ha) of the same compound?
Answer: Its ZEAMX herbicidal rating is 7.5.

Question: What about the ZEAMX herbicidal rating (ZEAMX (Corn, Field); rate 0.0630 kg/ha) of the same compound?
Answer: The ZEAMX herbicidal rating was 8.0.

Question: And the SETVI rating (SETVI (Foxtail, Green) [6]; 0.0313 kg/ha)?
Answer: The SETVI rating was 0.0.

Question: What about the SETVI rating (SETVI (Foxtail, Green) [6]; 0.0625 kg/ha) of the same compound?
Answer: The SETVI rating was 0.0.

Question: And the SETVI rating (SETVI (Foxtail, Green) [6]; 0.1250 kg/ha)?
Answer: Its SETVI rating is 0.0.

Question: And the SETVI rating (SETVI (Foxtail, Green) [6]; 0.2500 kg/ha)?
Answer: Its SETVI rating is 9.0.

Question: And the CHEAL herbicidal rating ([7]; rate 0.0158 kg/ha)?
Answer: The CHEAL herbicidal rating was 4.0.

Question: What about the CHEAL herbicidal rating ([7]; rate 0.0315 kg/ha) of the same compound?
Answer: The CHEAL herbicidal rating was 4.0.

Question: And the CHEAL herbicidal rating ([7]; rate 0.0630 kg/ha)?
Answer: The CHEAL herbicidal rating was 9.0.

Question: And the ORYSAT herbicidal rating (ORYSAT (Rice, Tebonnet); rate 0.0158 kg/ha)?
Answer: Its ORYSAT herbicidal rating is 1.0.

Question: And the ORYSAT herbicidal rating (ORYSAT (Rice, Tebonnet); rate 0.0315 kg/ha)?
Answer: Its ORYSAT herbicidal rating is 4.0.

Question: What about the ORYSAT herbicidal rating (ORYSAT (Rice, Tebonnet); rate 0.0630 kg/ha) of the same compound?
Answer: The ORYSAT herbicidal rating was 6.0.

Question: What about the AMBEL rating (AMBEL (Ragweed, Common); 0.0313 kg/ha) of the same compound?
Answer: The AMBEL rating was 0.0.

Question: And the AMBEL rating (AMBEL (Ragweed, Common); 0.0625 kg/ha)?
Answer: The AMBEL rating was 0.0.

Question: What about the AMBEL rating (AMBEL (Ragweed, Common); 0.1250 kg/ha) of the same compound?
Answer: The AMBEL rating was 9.0.

Question: And the AMBEL rating (AMBEL (Ragweed, Common); 0.2500 kg/ha)?
Answer: The AMBEL rating was 9.0.

Question: What about the “CYPIR herbicidal effect rating” value (CYPIR (Rice Flatsedge); 0.0313 kg/ha) of the same compound?
Answer: The value was 0.0.

Question: And the “CYPIR herbicidal effect rating” value (CYPIR (Rice Flatsedge); 0.0625 kg/ha)?
Answer: The value was 0.0.

Question: And the “CYPIR herbicidal effect rating” value (CYPIR (Rice Flatsedge); 0.1250 kg/ha)?
Answer: Its value is 0.0.

Question: What about the “CYPIR herbicidal effect rating” value (CYPIR (Rice Flatsedge); 0.2500 kg/ha) of the same compound?
Answer: The value was 0.0.
